Experimental data: US9051295B2, “1-substituted indazole derivative” (Dainippon Sumitomo Pharma Co., Ltd., priority 2012, dated 2015)

Each compound was assayed against T1, human α7 nAChR (Homo sapiens, UniProt P36544) (assay: Evaluation of PAM activity with human α7 nACh receptor stably expressing cells (aequorin luminescence, FDSS7000, ACh EC20)). Settings: statement on Table 8 data.
T1 construct: expressed in transfected cells; host or cells: GH4C1 cells (rat pituitary, ATCC CCL-82.2)
Assay type: cell-based
From the text: Evaluation of PAM Activity with Human α7 nACh Receptor Stably Expressing Cells
(1) Human α7 nAChR Stably Expressing Cells
Human α7 nAChR stably expressing cells were generated and cultured. In detail, GH4C1 cells derived from rat pituitary (cat#CCL-82.2, ATCC, USA) were used as a host cell. PcDNA3.1Zeo vector containing a nucleotide sequence encoding a protein GenBank BAC81731 and pcDNA3.1 vector containing human α7 nAChR gene (cat#V790-20, invitrogen, Carlsbad, Calif., USA) were transfected to the cells to give aequorins and human α7 nAChR stably expressing cells respectively. The aequorins and human α7 nAChR stably expressing cells were screened with Zeocin (cat#R25001, invitrogen, Carlsbad, Calif., USA) and Geneticin (cat#10131-027, invitrogen, Carlsbad, Calif., USA) respectively.
The cells were cultured in F-10 Nutrient Mixture (Ham) medium (cat#11550-043, invitrogen, Carlsbad, Calif., USA) containing 2.5% fetal bovine serum (cat#2917354, ICN Biomedicals, Inc, USA), 15% inactivated horse serum (cat#26050-088, invitrogen, Carlsbad, Calif., USA), 1 μg/mL Geneticin, and 5 μg/mL Puromycin (cat#14861-84, invitrogen, Carlsbad, Calif., USA), in a Collagen Type 1-coated dish (cat#4030-010, iwaki, Tokyo, Japan). During the culture, the medium was replaced with fresh medium in every 2 to 3 days, and the cells were treated with TrypLE Express (cat#45604-021, invitrogen, Carlsbad, Calif., USA) to collect them in every 7 days. Thus, the cells were subcultured.
7 Days after subculturing, the cells were treated with TrypLE Express to collect them when they were about 80% confluent. The cells were suspended in a reaction medium containing Hanks (cat#14065-056, invitrogen, Carlsbad, Calif., USA)/20 mmol/L Hepes (cat#15630-080, invitrogen, Carlsbad, Calif., USA), Buffer (pH 7.4), F-10 Nutrient Mixture (Ham), and 0.1 mg/mL Geneticin, and the suspension was seeded in a 384-well plate (cat#781090, Greiner, Germany) at 20000 cells/25 μL per well.
On the next day after seeding, Viviren (cat#E649X, Promega, Madison, Wis., USA) was added to the medium so that the final concentration could be 4 μmol/L (15 μL/well). The plates were centrifuged and then placed in the dark for 4 hours at room temperature.
(2) Preparation of the Test Samples
Each of the test compounds was dissolved in DMSO to prepare each test sample at a concentration of 1000-fold the final concentration. To the solution was added Hanks/20 mM HEPES/0.2% BSA (cat#A3803, Sigma, St. Louis, Mo., USA), and the concentration was adjusted to 6-fold the final concentration.
(3) Evaluation of PAM Activity
FDSS7000 (Hamamatsu Photonics) was used to detect the luminescence signal evoked by α7 nAChR stimulation. The cells and a luminescent substrate were put on a plate, and the test sample was added thereto. […] After the addition of ACh, the luminescence signal (the central wavelength: 465 nm) was measured for 138 seconds to calculate RLU (Max-Min). The ratio of the RLU (Max-Min) of the test-compound-containing wells to that of the control wells was defined as PAM activity.

T1 sequence (P36544 23-502): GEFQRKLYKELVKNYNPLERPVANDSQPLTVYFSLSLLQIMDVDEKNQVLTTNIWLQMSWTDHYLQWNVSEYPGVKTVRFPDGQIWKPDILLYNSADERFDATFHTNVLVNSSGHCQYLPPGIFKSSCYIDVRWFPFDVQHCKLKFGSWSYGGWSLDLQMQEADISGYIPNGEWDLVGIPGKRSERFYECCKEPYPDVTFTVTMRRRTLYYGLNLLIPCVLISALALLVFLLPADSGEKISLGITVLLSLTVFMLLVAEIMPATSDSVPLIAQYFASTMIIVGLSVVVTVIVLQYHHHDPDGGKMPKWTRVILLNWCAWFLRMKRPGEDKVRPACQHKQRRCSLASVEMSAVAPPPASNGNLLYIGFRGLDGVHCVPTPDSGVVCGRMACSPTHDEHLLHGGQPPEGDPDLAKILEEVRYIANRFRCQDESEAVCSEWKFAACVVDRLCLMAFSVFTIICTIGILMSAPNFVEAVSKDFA

| PAM activity for α7 nAChR (in words) | Structure (SMILES) |
| --- | --- |
| stronger PAM activity than others | CCc1ccc2c(cnn2[C@H]2CC[C@@H](NC(=O)C3CCC(F)(F)CC3)CC2)c1 [Example 4, N-(cis-4-(5-ethyl-1H-indazol-1-yl)cyclohexyl)-4,4-difluorocyclohexanecarboxamide] |
| stronger PAM activity than others | CCOc1ccc2c(cnn2C2CCN(C(=O)NC3CCCCC3)CC2)c1 [Example 18, N-cyclohexyl-4-(5-ethoxy-1H-indazol-1-yl)piperidine-1-carboxamide] |
| stronger PAM activity than others | CCc1ccc2c(cnn2[C@H]2CC[C@@H](NC(=O)C3CCCCC3)CC2)c1 [Example 119] |
| stronger PAM activity than others | COc1ccc2c(cnn2C2CCN(C(=O)NC3CCC(F)(F)CC3)CC2)c1 [Example 41, N-(4,4-difluorocyclohexyl)-4-(5-methoxy-1H-indazol-1-yl)piperidine-1-carboxamide] |
| stronger PAM activity than others | CCc1ccc2c(cnn2C2CCN(C(=O)NC3CCCC3)CC2)c1 [Example 20] |
| stronger PAM activity than others | Cc1ccc2c(cnn2C2CCN(C(=O)NC3CCCCC3)CC2)c1 [Example 8, N-cyclohexyl-4-(5-methyl-1H-indazol-1-yl)piperidine-1-carboxamide] |
| stronger PAM activity than others | COCC1CCC(NC(=O)N2CCC(n3ncc4cc(C)ccc43)CC2)CC1 (stereo not drawn) [Example 220] |

| Structure (SMILES) | PAM activity for α7 nAChR (in words) |
| --- | --- |
| CCc1ccc2c(cnn2C2CCN(C(=O)NC3CCC(F)(F)CC3)CC2)c1 [Example 23] | stronger PAM activity than others |
| CCOc1ccc2c(cnn2C2CCN(C(=O)NC3CCCC3)CC2)c1 [Example 17] | stronger PAM activity than others |

Same assay, conditions: test compound 10 μmol/L; ACh at EC20; ratio of RLU (Max-Min) of test-compound wells to control wells

| α7PAM (%) @ 10 μmol/L [%] | Structure (SMILES) |
| --- | --- |
| 2344 | CCc1ccc2c(cnn2[C@H]2CC[C@@H](NC(=O)C3CCC(F)(F)CC3)CC2)c1 [Example 4, N-(cis-4-(5-ethyl-1H-indazol-1-yl)cyclohexyl)-4,4-difluorocyclohexanecarboxamide] |
| 410 | CCc1ccc2c(cnn2[C@H]2CC[C@@H](NC(=O)[C@H]3CC[C@H](OC)CC3)CC2)c1 [Example 122] |
| 1764 | CCc1ccc2c(cnn2C2CCN(C(=O)N[C@H]3CC[C@H](OC)CC3)CC2)c1 [Example 16, 4-(5-ethyl-1H-indazol-1-yl)-N-(trans-4-methoxycyclohexyl)piperidine-1-carboxamide] |
| 6779 | CCOc1ccc2c(cnn2C2CCN(C(=O)NC3CCCCC3)CC2)c1 [Example 18, N-cyclohexyl-4-(5-ethoxy-1H-indazol-1-yl)piperidine-1-carboxamide] |
| 380 | O=C(NC1CCOCC1)N1CCC(n2ncc3c(OC(F)(F)F)cccc32)CC1 [Example 304] |
| 430 | COCCCc1ccc2c(cnn2C2CCN(C(=O)N[C@H]3CC[C@H](OC)CC3)CC2)c1 [Example 32] |
| 190 | O=C(C1CCOCC1)N1CCC(n2ncc3cc(F)ccc32)CC1 [Example 104] |
| 800 | COCc1c(C)ccc2c1cnn2C1CCN(C(=O)NC2CCC(F)(F)CC2)CC1 [Example 213] |
| 430 | COCc1nn(C2CCN(C(=O)NC3CCCCC3)CC2)c2ccc(C)cc12 [Example 68] |
| 370 | O=C(NC1CCC(F)(F)CC1)N1CCC(n2ncc3c(OC(F)F)cccc32)CC1 [Example 201] |
| 3749 | COc1ccc2c(cnn2C2CCN(C(=O)NC3CCC(F)(F)CC3)CC2)c1 [Example 41, N-(4,4-difluorocyclohexyl)-4-(5-methoxy-1H-indazol-1-yl)piperidine-1-carboxamide] |
| 340 | O=C(NC1CCOCC1)N1CCC(n2ncc3cc(C(F)(F)F)ccc32)CC1 [Example 297] |
| 1425 | CCc1ccc2c(cnn2C2CCN(C(=O)NC3CCCOC3)CC2)c1 (stereo not drawn) [Example 22, 4-(5-ethyl-1H-indazol-1-yl)-N-(tetrahydro-2H-pyran-3-yl)piperidine-1-carboxamide] |
| 1202 | CC(C)Oc1ccc2c(cnn2C2CCN(C(=O)NC3CCCCC3)CC2)c1 [Example 48, N-cyclohexyl-4-(5-isopropoxy-1H-indazol-1-yl)piperidine-1-carboxamide] |
| 1096 | CCc1ccc2c(cnn2C2CCN(C(=O)N[C@H]3CC[C@H](OC)CC3)CC2)c1OC [Example 255, 4-(5-ethyl-4-methoxy-1H-indazol-1-yl)-N-(trans-4-methoxycyclohexyl)piperidine-1-carboxamide] |
| 210 | CO[C@H]1CC[C@H](NC(=O)N2CCC(n3ncc4cc(-c5ccc(F)cc5)ccc43)CC2)CC1 [Example 155] |
| 410 | CCc1ccc2c(cnn2C2CCN(C(=O)C3CCOCC3)CC2)c1 [Example 111] |
| 1463 | O=C(NC1CCC(F)(F)CC1)N1CCC(n2ncc3cc(OC4CC4)ccc32)CC1 [Example 249, 4-[5-(cyclopropoxy)-1H-indazol-1-yl]-N-(4,4-difluorocyclohexyl)piperidine-1-carboxamide] |

| α7PAM (%) @ 10 μmol/L [%] | Structure (SMILES) |
| --- | --- |
| 220 | O=C(Nc1ccc(C(F)(F)F)nc1)N1CCC(n2ncc3cc(C4CC4)ccc32)CC1 [Example 187] |
| 89 | COC1CCC(NC(=O)N2CCC(n3ncc4c(Br)cccc43)CC2)CC1 (stereo not drawn) [Example 98] |
| 1576 | Cc1ccc2c(c1)c(C)nn2C1CCN(C(=O)NC2CCC(F)(F)CC2)CC1 [Example 45, N-(4,4-difluorocyclohexyl)-4-(3,5-dimethyl-1H-indazol-1-yl)piperidine-1-carboxamide] |
| 200 | CCOc1cccc2c1cnn2C1CCN(C(=O)N[C@H]2CC[C@@H](OC)CC2)CC1 [Example 184] |
| 1025 | CCCc1ccc2c(cnn2C2CCN(C(=O)NC3CCOCC3)CC2)c1 [Example 15, 4-(5-propyl-1H-indazol-1-yl)-N-(tetrahydro-2H-pyran-4-yl)piperidine-1-carboxamide] |
| 1064 | Cc1ccc2c(cnn2C2CCN(C(=O)N[C@H]3CCCCC3(F)F)CC2)c1 [Example 79, (S)—N-(2,2-difluorocyclohexyl)-4-(5-methyl-1H-indazol-1-yl)piperidine-1-carboxamide] |
| 1133 | CCc1cccc2c1cnn2C1CCN(C(=O)NC2CCC(F)(F)CC2)CC1 [Example 64, N-(4,4-difluorocyclohexyl)-4-(4-ethyl-1H-indazol-1-yl)piperidine-1-carboxamide] |
| 3053 | Cc1ccc2c(cnn2C2CCN(C(=O)NC3CCCCC3)CC2)c1 [Example 8, N-cyclohexyl-4-(5-methyl-1H-indazol-1-yl)piperidine-1-carboxamide] |
| 420 | CCCc1ccc2c(cnn2C2CCN(C(=O)NC3CCC(OC)CC3)CC2)c1 (stereo not drawn) [Example 76] |
| 1433 | CO[C@H]1CC[C@H](NC(=O)N2CCC(n3ncc4cc(OC(F)F)ccc43)CC2)CC1 [Example 291, 4-[5-(difluoromethoxy)-1H-indazol-1-yl]-N-(trans-4-methoxycyclohexyl)piperidine-1-carboxamide] |
| 480 | CO[C@H]1CC[C@H](NC(=O)N2CCC(n3ncc4c(C)c(C)ccc43)CC2)CC1 [Example 225] |
| 860 | COC(C)c1c(C)ccc2c1cnn2C1CCN(C(=O)NC2CCC(F)(F)CC2)CC1 (stereo not drawn) [Example 232] |
| 1033 | Cc1ccc2c(cnn2C2CCN(C(=O)N[C@H]3CCCC3(F)F)CC2)c1 [Example 80, (S)—N-(2,2-difluorocyclopentyl)-4-(5-methyl-1H-indazol-1-yl)piperidine-1-carboxamide] |
| 1093 | CCc1ccc2c(cnn2C2CCN(C(=O)NC3CCOCC3)CC2)c1OC [Example 275, 4-(5-ethyl-4-methoxy-1H-indazol-1-yl)-N-(tetrahydro-2H-pyran-4-yl)piperidine-1-carboxamide] |
| 1673 | CCOc1ccc2c(cnn2C2CCN(C(=O)NC3CCC(F)(F)CC3)CC2)c1 [Example 27, N-(4,4-difluorocyclohexyl)-4-(5-ethoxy-1H-indazol-1-yl)piperidine-1-carboxamide] |
| 1467 | CCO[C@H]1CC[C@H](NC(=O)N2CCC(n3ncc4cc(C)ccc43)CC2)CC1 [Example 90, N-(trans-4-ethoxycyclohexyl)-4-(5-methyl-1H-indazol-1-yl)piperidine-1-carboxamide] |
| 360 | COc1c(C(F)(F)F)ccc2c1cnn2C1CCN(C(=O)NC2CCC(OC)CC2)CC1 (stereo not drawn) [Example 317] |

| Structure (SMILES) | α7PAM (%) @ 10 μmol/L [%] |
| --- | --- |
| CCc1ccc2c(cnn2C2CCN(C(=O)NC3CCC(F)(F)CC3)CC2)c1 [Example 23] | 6196 |
